Source: patent publication US20090097026A1, “COLOR MEASUREMENTS OF RECONSTITUTED TIGECYCLINE AND DEGRADANT THEREOF” (Wyeth, priority 2007, published 2009)

Tests used:
[1] = Color value of reconstituted tigecycline and tigecycline API spiked with Compound I; assay type: physicochemical; settings: spiked into reconstituted tigecycline and tigecycline API; visual observation
Method: The spiking concentrations required to produce a clear color change in tigecycline (tigecycline for injection 50 mg/vial (lactose formulation)) was characterized using both a Hunterlab UltraScan XE color spectrophotometer and a quantitative HPLC method. The threshold for visual green color resulting from spiking with Compound I colored degradant was determined for each category of tigecycline samples. An excellent linear correlation (R>0.99) between the concentration of Compound I and the calculated color value is observed. The spiking of tigecycline with ca. 0.045 concentration Compound I results in observation of a slightly green color in the reconstituted tigecycline and tigecycline API. This green color is more pronounced at the higher Compound I concentration. Tables 1, 2, 3 and 4 summarize the calculated color values and HPLC results for tigecycline Registration stability batches (CR0040-50-01, CR0040-50-02, CR0040-50-03), validation stability batches (B41133, B41404, B41710) and API used in the validation stability batches (3000002665, 2000140691, 2000140693). As per the color methods employed the calculated color value is calculated from the measured CIEL*a*b* values using the equation below:
Calculated Color Value=2.19×L*+2.59×a*−0.48×b*
The samples were tested immediately after reconstitution according to the label directions (5.3 ml of 0.9% saline). […]

[2] = Stability / oxidative degradation observations; assay type: physicochemical; settings: result in words
Source text: Compound I was isolated from forced degradation samples of tigecycline and is unstable. This blue compound was characterized by LC-MS/MS and NMR as an iminoquinone derivative of tigecycline, an oxidative degradant with a positive ionic formula of C29H38N5O10 formed when tigecycline is exposed to air for twenty-four hours. A linear correlation (R>0.99) between the concentration of Compound I and the calculated color value was discovered. In substantially pure form, Compound I is useful as a test standard for determining the concentration of Compound I in a sample of Tigecycline. Compound I may be obtained in substantially pure form from the compound Tygecycline according to the following method: Tygecycline is degraded at room temperature by dissolving it in water open to air and stirring for a few hours until the solution changes color from yellow/orange to dark green. […]
Compound I was studied by NMR spectroscopy as well. […] A highly intense singlet peak at δH 3.59 was assigned to methyl protons of the C-7 dimethyl amino group, and their associated carbons were detected at δC 47.1 in the HSQC spectrum. […]

| SMILES | concentration of Compound I that results in a slightly green color [1] | stability [2] |
| --- | --- | --- |
| CN(C)c1c(O)c(C(N)=O)c(O)c(O)c1C[C@H]1C(C(=O)O)=C(O)C2=C(C(=[N+](C)C)C=C(NC(=O)CNC(C)(C)C)C2=O)[C@@H]1O [Compound I] | ca. 0.045 |  |
| CN(C)c1cc(NC(=O)CNC(C)(C)C)c(O)c2c1C[C@H]1C[C@H]3[C@H](N(C)C)C(O)=C(C(N)=O)C(=O)[C@@]3(O)C(O)=C1C2=O [tigecycline] |  | susceptible to oxidative degradation |
